Assay results as given in patent publication US20050101595A1, “N-containing cycloalkyl-substituted amino-thiazole derivatives and pharmaceutical compositions for inhibiting cell proliferation and methods for their use” (PFIZER INC., priority 2003, published 2005).
Structures can show the parent of a compound that is named as a salt. Where two headings read alike, the source gives them in different places.

Legend:
CDK2/Cyclin A = CDK2/Cyclin A (Homo sapiens, UniProt P24941); experiment: Inhibition of CDK2/Cyclin A Retinoblastoma Kinase Activity; type: biochemical; settings: for Ki: apparent Ki, CDK2/proteolyzed cyclin A, Rb fragment substrate, 25 μM ATP; for CDK2 % Inhibition At 0.03 μM: Table 2
In short: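 Radiometric filter-binding readout of phosphate transfer to an Rb substrate fragment by purified CDK2/truncated cyclin A at 10 or 19 nM. Run at pH 7.4 with 25 μM ATP, 30 °C, 60–75 min, linear rates; background without enzyme subtracted, Ki from competitive-inhibition models.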

HCT-116 cell line = experiment: Inhibition of cell growth, tetrazolium salt (MTT) assay; type: cell-based; settings: for IC50: Homo sapiens, HCT-116, 120 h, MTT, three to five days, read-out: HCT-116 IC50; for HCT-116 % Inhibition at 0.25 μM: 0.25 μM compound
In short: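 Growth inhibition by MTT reduction at 540 nm (0.2 mg/mL, 4 h at 37° C, formazan dissolved in DMSO), normalized to cells given only 0.5% v/v DMSO. HCT-116 cultures in McCoy's 5A were dosed 4 h post-plating and kept three to five days at 37° C, 5% CO2.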

[1] = molecular target: human CDK4 and genetically truncated (1-264) cyclin D3 (Homo sapiens, UniProt P11802); experiment: Inhibition of CDK4/Cyclin D Retinoblastoma Kinase Activity; type: biochemical; settings: for Ki: apparent Ki, CDK4/truncated cyclin D3, Rb fragment substrate, 25 μM ATP
human CDK4 and genetically truncated (1-264) cyclin D3, sequence (P11802 whole entry, the tested form may be a part): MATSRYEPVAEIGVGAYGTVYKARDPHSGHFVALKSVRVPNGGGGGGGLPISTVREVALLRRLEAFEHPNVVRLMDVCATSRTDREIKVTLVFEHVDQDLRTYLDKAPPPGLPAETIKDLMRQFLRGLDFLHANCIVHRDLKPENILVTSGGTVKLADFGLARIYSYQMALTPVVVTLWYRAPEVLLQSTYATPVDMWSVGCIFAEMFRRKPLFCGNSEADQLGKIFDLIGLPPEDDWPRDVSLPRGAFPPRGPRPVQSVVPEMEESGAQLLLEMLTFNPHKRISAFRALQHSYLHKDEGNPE
human CDK4 and genetically truncated (1-264) cyclin D3, sequence (P30281 1-264 partner): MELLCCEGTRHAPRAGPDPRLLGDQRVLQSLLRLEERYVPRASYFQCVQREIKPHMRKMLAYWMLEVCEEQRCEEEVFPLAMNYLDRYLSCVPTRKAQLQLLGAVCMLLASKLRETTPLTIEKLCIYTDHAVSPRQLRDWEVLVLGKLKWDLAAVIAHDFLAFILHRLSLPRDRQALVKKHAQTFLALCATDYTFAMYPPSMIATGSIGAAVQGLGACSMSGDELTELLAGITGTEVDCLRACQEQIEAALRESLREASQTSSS
In short: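 Apparent Ki values come from competitive or competitive tight-binding inhibition fits of background-corrected 32P/33P incorporation into His-tagged Rb fragment (386-928), captured on nitrocellulose. Reaction: 5 nM insect-cell-expressed human CDK4 with cyclin D3 (1-264), 25 μM ATP, pH 7.4 HEPES, 2% DMSO, 30° C., 20 min, extended to 60 min for tight-binding inhibitors.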

[2] = 0.1 μM compound, HCT-116, Table 3

Ki (CDK2/Cyclin A)	IC50 (HCT-116 cell line; first HCT-116 column (c4))	IC50 (HCT-116 cell line; second HCT-116 column (c5))	Ki [1]	SMILES	other results
1.1 nM	170 nM	> 500 nM	0.76 nM	Nc1nc(NC2CCN(S(=O)(=O)c3ccc(CCN4CCOCC4)nc3)CC2)sc1C(=O)c1c(F)cccc1F [Example N3, (4-Amino-2-{1-[6-(2-morpholin-4-yl-ethyl)-pyridine-3-sulfonyl]-piperidin-4-ylamino}-thiazol-5-yl)-(2,6-difluoro-phenyl)-methanone Hydrochloride Salt.]	–
12 nM	330 nM	780 nM	5.4 nM	CN1CCN(S(=O)(=O)N2CCC(Nc3nc(N)c(C(=O)c4c(F)cccc4F)s3)CC2)CC1 [Example E3, {4-Amino-2-[1-(4-methyl-piperazine-1-sulfonyl)-piperidin-4-ylamino]-thiazol-5-yl}-(2,6-difluoro-phenyl)-methanone]	–
0.27 nM	63 nM	> 500 nM	0.36 nM	Nc1nc(NC2CCN(S(=O)(=O)c3ccc(-n4ccnc4)nc3)CC2)sc1C(=O)c1c(F)cccc1F [Example G25, 1-{4-Amino-2-[1-(6-imidazol-1-yl-pyridine-3-sulfonyl)-piperidin-4-ylamino]-thiazol-5-yl}-1-(2,6-difluoro-phenyl)-methanone Trifluoroacetic Acid Salt]	–
1.5 nM	380 nM	3000 nM	0.51 nM	CC(C)(C)NCCOc1ccc(S(=O)(=O)N2CCC(Nc3nc(N)c(C(=O)c4c(F)cccc4F)s3)CC2)cn1 [Example H20, (4-Amino-2-{1-[6-(2-tert-butylamino-ethoxy)-pyridine-3-sulfonyl]-piperidin-4-ylamino}-thiazol-5-yl)-(2,6-difluoro-phenyl)-methanone Hydrochloride Salt]	–
–	–	–	–	COC(=O)[C@@H](NC(=O)N1CCC(Nc2nc(N)c(C(=O)c3c(F)cccc3F)s2)CC1)C(C)C [Example O76]	CDK2 % Inhibition At 0.03 μM (CDK2/Cyclin A; 0.03 μM compound): 22%; HCT-116 % Inhibition at 0.25 μM (HCT-116 cell line; HCT-116, Table 2): 49%; CDK4 % Inhibition at 0.03 μM ([1]; 0.03 μM compound, Table 2): 5%
–	–	–	–	COCCOC(=O)N1CCC(Nc2nc(N)c(C(=O)c3c(F)cccc3F)s2)CC1 [Example R82]	CDK2 % Inhibition at 0.03 μM (CDK2/Cyclin A; at 0.03 μM): −11%; HCT-116 % Inhibition at 0.1 μM (HCT-116 cell line; HCT-116 cells, at 0.1 μM): 0%; HCT-116 5 Inhibition at 0.25 μM (HCT-116 cell line; HCT-116 cells): 50; CDK4 % Inhibition at 0.03 μM ([1]; at 0.03 μM): 17%
–	–	–	–	Nc1nc(NC2CCN(C(=O)c3ccccc3OC(F)(F)F)CC2)sc1C(=O)c1c(F)cccc1F [Example R23]	CDK2 % Inhibition at 0.03 μM (CDK2/Cyclin A; at 0.03 μM): −6%; HCT-116 % Inhibition at 0.1 μM (HCT-116 cell line; HCT-116 cells, at 0.1 μM): 2%; HCT-116 5 Inhibition at 0.25 μM (HCT-116 cell line; HCT-116 cells): 38; CDK4 % Inhibition at 0.03 μM ([1]; at 0.03 μM): 34%
–	–	–	–	Cc1noc(C)c1C(=O)N1CCC(Nc2nc(N)c(C(=O)c3c(F)cccc3F)s2)CC1 [Example R25]	CDK2 % Inhibition at 0.03 μM (CDK2/Cyclin A; at 0.03 μM): −9%; HCT-116 % Inhibition at 0.1 μM (HCT-116 cell line; HCT-116 cells, at 0.1 μM): 0%; HCT-116 5 Inhibition at 0.25 μM (HCT-116 cell line; HCT-116 cells): 43; CDK4 % Inhibition at 0.03 μM ([1]; at 0.03 μM): 22%
2.8 nM	210 nM	480 nM	3.9 nM	Nc1nc(NC2CCN(S(=O)(=O)c3ccc(C4=NCCO4)cc3)CC2)sc1C(=O)c1c(F)cccc1F [Example J5, 1-(4-Amino-2-{1-[4-(4,5-dihydro-oxazol-2-yl)-benzenesulfonyl]-piperidin-4-ylamino}-thiazol-5-yl)-1-(2,6-difluoro-phenyl)-methanone]	–
11 nM	230 nM	800 nM	3.5 nM	CC1C=CC(C)N1CCS(=O)(=O)N1CCC(Nc2nc(N)c(C(=O)c3c(F)cccc3F)s2)CC1 (mixture of isomers) [Example K27, (4-Amino-2-{1-[2-(cis/trans-2,5-dimethyl-2,5-dihydro-pyrrol-1-yl)-ethanesulfonyl]-piperidin-4-ylamino}-thiazol-5-yl)-(2,6-difluoro-phenyl)-methanone Trifluoroacetic Acid Salt.]	–
–	–	–	–	CCCCC(C)C(=O)N1CCC(Nc2nc(N)c(C(=O)c3c(F)cccc3F)s2)CC1 (centres unmarked) [Example R167]	CDK2 % Inhibition at 0.03 μM (CDK2/Cyclin A; at 0.03 μM): −2%; HCT-116 % Inhibition at 0.1 μM (HCT-116 cell line; HCT-116 cells, at 0.1 μM): 0%; HCT-116 5 Inhibition at 0.25 μM (HCT-116 cell line; HCT-116 cells): 42; CDK4 % Inhibition at 0.03 μM ([1]; at 0.03 μM): 11%
0.51 nM	66 nM	280 nM	2.1 nM	CC1CCC(NCCS(=O)(=O)N2CCC(Nc3nc(N)c(C(=O)c4c(F)cccc4F)s3)CC2)CC1 (mixture of isomers) [Example K40, (4-Amino-2-{1-[2-(4(cis/trans)-methyl-cyclohexylamino)-ethanesulfonyl]-piperidin-4-ylamino}-thiazol-5-yl)-(2,6-difluoro-phenyl)-methanone]	–
1.8 nM	51 nM	320 nM	0.67 nM	CN(C)CCOc1ccc(S(=O)(=O)N2CCC(Nc3nc(N)c(C(=O)c4c(F)cccc4F)s3)CC2)cn1 [Example H3, 1-(4-Amino-2-{1-[6-(2-dimethylamino-ethoxy)-pyridine-3-sulfonyl]-piperidin-4-ylamino}-thiazol-5-yl)-1-(2,6-difluoro-phenyl)-methanone Hydrochloride]	–
–	–	–	–	N#Cc1cccc(S(=O)(=O)N2CCC(Nc3nc(N)c(C(=O)c4c(F)cccc4F)s3)CC2)c1 [Example P77]	CDK2 % Inhibition at 0.03 μM (CDK2/Cyclin A; 0.03 μM compound, Table 3): 19%; HCT-116 % Inhibition at 0.1 μM (HCT-116 cell line; [2]): 21%; HCT-116 % Inhibition at 0.25 μM (HCT-116 cell line; HCT-116, Table 3): 20%; CDK4 % Inhibition at 0.03 μM ([1]; 0.03 μM compound, Table 3): 43%
2.7 nM	> 500 nM	> 500 nM	4.4 nM	Nc1nc(NC2CCN(S(=O)(=O)CCCSc3ccccn3)CC2)sc1C(=O)c1c(F)cccc1F [Example K21, 1-(4-Amino-2-{1-[3-(pyridin-2-ylsulfanyl)-propane-1-sulfonyl]-piperidin-4-ylamino}-thiazol-5-yl)-1-(2,6-difluoro-phenyl)-methanone]	–
< 1 nM	1500 nM	2600 nM	0.51 nM	Nc1nc(NC2CCN(S(=O)(=O)c3ccc(-c4ncc[nH]4)cc3)CC2)sc1C(=O)c1c(F)cccc1F [Example F34]	–
–	–	–	–	Cc1ccc(S(=O)(=O)N2CCC(Nc3nc(N)c(C(=O)c4c(F)cccc4F)s3)CC2)cc1 [Example P23]	CDK2 % Inhibition at 0.03 μM (CDK2/Cyclin A; 0.03 μM compound, Table 3): 64%; HCT-116 % Inhibition at 0.1 μM (HCT-116 cell line; [2]): 19%; HCT-116 % Inhibition at 0.25 μM (HCT-116 cell line; HCT-116, Table 3): 32%; CDK4 % Inhibition at 0.03 μM ([1]; 0.03 μM compound, Table 3): 67%
–	–	–	–	Nc1nc(NC2CCN(C(=O)NC(=O)c3ccccc3)CC2)sc1C(=O)c1c(F)cccc1F [Example O26]	CDK2 % Inhibition At 0.03 μM (CDK2/Cyclin A; 0.03 μM compound): 33%; HCT-116 % Inhibition at 0.25 μM (HCT-116 cell line; HCT-116, Table 2): 12%; CDK4 % Inhibition at 0.03 μM ([1]; 0.03 μM compound, Table 2): 10%
–	–	–	–	N#Cc1ccc(S(=O)(=O)N2CCC(Nc3nc(N)c(C(=O)c4c(F)cccc4F)s3)CC2)c(Cl)c1 [Example P71]	CDK2 % Inhibition at 0.03 μM (CDK2/Cyclin A; 0.03 μM compound, Table 3): 57%; HCT-116 % Inhibition at 0.1 μM (HCT-116 cell line; [2]): 13%; HCT-116 % Inhibition at 0.25 μM (HCT-116 cell line; HCT-116, Table 3): 21%; CDK4 % Inhibition at 0.03 μM ([1]; 0.03 μM compound, Table 3): 52%
0.32 nM	37 nM	110 nM	0.37 nM	Nc1nc(NC2CCN(S(=O)(=O)c3ccc(-c4cccnc4)nc3)CC2)sc1C(=O)c1c(F)cccc1F [Example I6, 1-{4-Amino-2-[1-([2,3′]bipyridinyl-5-sulfonyl)-piperidin-4-ylamino]-thiazol-5-yl}-1-(2,6-difluoro-phenyl)-methanone Hydrochloride]	–
8.7 nM	610 nM	2600 nM	5.8 nM	Nc1nc(NC2CCN(S(=O)(=O)c3cc(Cl)sc3Cl)CC2)sc1C(=O)c1c(F)cccc1F [Example F13, 1-{4-Amino-2-[1-(2,5-dichloro-thiophene-3-sulfonyl)-piperidin-4-ylamino]-thiazol-5-yl}-1-(2,6-difluoro-phenyl)-methanone]	–
–	–	–	–	CCOC(=O)CCCCCNC(=O)N1CCC(Nc2nc(N)c(C(=O)c3c(F)cccc3F)s2)CC1 [Example O70]	CDK2 % Inhibition At 0.03 μM (CDK2/Cyclin A; 0.03 μM compound): 28%; HCT-116 % Inhibition at 0.25 μM (HCT-116 cell line; HCT-116, Table 2): 52%; CDK4 % Inhibition at 0.03 μM ([1]; 0.03 μM compound, Table 2): 7%
–	–	–	–	COc1ccc(S(=O)(=O)N2CCC(Nc3nc(N)c(C(=O)c4c(F)cccc4F)s3)CC2)cc1 [Example P20]	CDK2 % Inhibition at 0.03 μM (CDK2/Cyclin A; 0.03 μM compound, Table 3): 78%; HCT-116 % Inhibition at 0.1 μM (HCT-116 cell line; [2]): 23%; HCT-116 % Inhibition at 0.25 μM (HCT-116 cell line; HCT-116, Table 3): 43%; CDK4 % Inhibition at 0.03 μM ([1]; 0.03 μM compound, Table 3): 76%
0.48 nM	57 nM	500 nM	0.28 nM	CN1CCCC(Oc2ccc(S(=O)(=O)N3CCC(Nc4nc(N)c(C(=O)c5c(F)cccc5F)s4)CC3)cn2)C1 (centres unmarked) [Example H16, 1-(4-Amino-2-{1-[6-(1-methyl-piperidin-3RS-yloxy)-pyridin-3-sulfonyl]-piperidin-4-ylamino}-thiazol-5-yl)-1-(2,6-difluoro-phenyl)-methanone Hydrochloride]	–
–	–	–	–	CC(C)(C)c1cc(C(=O)N2CCC(Nc3nc(N)c(C(=O)c4c(F)cccc4F)s3)CC2)n(Cc2ccccc2)n1 [Example R58]	CDK2 % Inhibition at 0.03 μM (CDK2/Cyclin A; at 0.03 μM): 41%; HCT-116 % Inhibition at 0.1 μM (HCT-116 cell line; HCT-116 cells, at 0.1 μM): 5%; HCT-116 5 Inhibition at 0.25 μM (HCT-116 cell line; HCT-116 cells): 44; CDK4 % Inhibition at 0.03 μM ([1]; at 0.03 μM): 72%
2.9 nM	180 nM	480 nM	5.9 nM	CS(=O)(=O)N1CCC(Nc2nc(N)c(C(=O)c3c(F)cccc3F)s2)CC1 [Example F3, 1-[4-Amino-2-(1-methanesulfonyl-piperidin-4-ylamino)-thiazol-5-yl]-1-(2,6-difluoro-phenyl)-methanone]	–
